Results on 2 compounds are retold here after US9925162B2, “Methods and compositions for inducing physiological hypertrophy” (THE REGENTS OF THE UNIVERSITY OF COLORADO, priority 2009, dated 2018).

The test system of assay [1] is Neonatal rat ventricular myocytes (NRVMs). The experiment in a line: Inhibition of fatty acid transport blocks serum-induced NRVM hypertrophy. It counts as cell-based. The conditions noted are these: Coulter Counter. On the procedure:
Synthesis of Sulfo-N-succinimidyl oleate (SSO) was performed as described by Harmon et al. (J. Membr Biol.; 121:261-268; 1991), which is hereby incorporated by reference. Briefly, oleate (0.25 mM), HOSu(SO3)Na (0.25 mM), and dicyclohexylcarbodiimide (DCC) (0.275 mM) were dissolved in 0.5 ml of dry N,N-dimethylformamide (DMF) and stirred overnight at room temperature. Precipitated dicyclohexyturea was removed by filtration, and the filtrate cooled to 3° C. for 4 hours. Eight volumes of ethyl acetate were added, and the precipitated product was collected by filtration under nitrogen and then stored in a vacuumed desiccator over phosphorus pentoxide. Neonatal rat ventricular myocytes (NRVMs) were cultured in serum-free media (MEM/Hepes/PB12) containing insulin, transferrin, BSA, and BrdU. NRVMs were treated with serum (2%) in the presence and absence of SSO (400 μM) for 48 hours and cell size was determined using a Coulter Counter.

The test system of a further assay is Aquaporin 7. The experiment in a line: Aqp7 mRNA by qPCR after fatty acid treatment. The conditions noted are these: fasted plasma supplemented with FFAs, relative to 1 DPF plasma, FIG. 11. In kind it is cell-based, rat. How it is done:
(§1) Individual fatty acids were complexed to BSA as described by de Vries et al. (J. Lipid Res.; 38:1384-1394; 1997), which is hereby incorporated by reference. […] An equal volume of Na2CO3 (10 mM) was added and the ethanol was evaporated at 60° C. under continuous N2 flow. The fatty acid mix was added dropwise to 10% BSA. BSA/fatty acid complexes were then dialyzed four times at 4° C. during 4-6 hours in NH4HCO3 (0.1 M). Complexes were then frozen, lyophilized overnight, and resuspended in NRVM rinse media (MEM/PB12/Hepes) for a final concentration of 7 mM. NRVMs were treated with fasted serum, 1 day post-fed serum, or fasted serum+individual fatty acids. […] NRVM gene expression and mean cell diameter were determined after either 24 or 48 hours, respectively.
On the technique in general: In qPCR the cycle at which signal appears reflects the starting amount.

For assay [2], the system named is neonatal rat cardiomyocytes. The experiment in a line: Fasted plasma supplemented with fatty acids, NRVM cell size. In kind it is cell-based. The conditions noted are these: fasted plasma 2% supplemented to 1 DPF-like levels (C14 40 μM; C16 137 μM; C16:1 7.5 μM), 48 hours, FIG. 10. How it is done: as §1

As for `CCCCCCCC/C=C\CCCCCCCC(=O)ON1C(=O)CC(S(=O)(=O)O)C1=O` (stereo not shown) [SSO, Sulfo-N-succinimidyl oleate], the “cell growth induced by the fed-serum” value in assay [1] (SSO 400 μM, 2% 1DPF serum, 48 hours) was “completely blocks”. In assay [1] (SSO and no serum (control)), the cell size result was “smaller”.

With `CCCCCCCCCCCCCC(=O)O` [C14, tetradecanoic acid], in the assay with Aquaporin 7, the “Aqp7 mRNA levels” value is listed as “comparable levels observed with 1 DPF plasma”. The “changes in cell size” value in assay [2] is “significant increase”.
